Results reported in US9346812B2, “Substituted pyrrolopyrimidine compounds, compositions thereof, and methods of treatment therewith” (Signal Pharmaceutical LLC, priority 2013, dated 2016).
pIC50: −log10 of the molar value.

System: CAL51 cell proliferation
Experiment: Cell Titer Glo Proliferation Assay (CAL51)
Assay type: cell-based, human
Conditions: Homo sapiens, CAL-51; CAL51 cell proliferation, 72 h, Cell Titer Glo luminescence; read-out: Act. Level
Summary of the method: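 CAL51 triple-negative breast cancer cells in DMEM or RPMI with 10% FBS were treated after overnight culture with serially diluted compound at 0.2% final DMSO. After 72 h, viability was read as CellTiter-Glo luminescence.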

SMILES | pIC50
COc1cc(C(=O)N(C)CCO)ccc1Nc1nc(OC2CCCC2)c2c(-c3ccc4nc(C)oc4c3)c[nH]c2n1 [Example 233, 4-(4-(cyclopentyloxy)-5-(2-methylbenzo[d]oxazol-6-yl)-7H-pyrrolo[2,3-d]pyrimidin-2-ylamino)-N-(2-hydroxyethyl)-3-methoxy-N-methylbenzamide] | > 7.00
COc1cc(C(=O)NC(C)(C)CO)ccc1Nc1nc(OC2CCCC2)c2c(-c3ccc4nc(C)oc4c3)c[nH]c2n1 [Example 234, 4-(4-(cyclopentyloxy)-5-(2-methylbenzo[d]oxazol-6-yl)-7H-pyrrolo[2,3-d]pyrimidin-2-ylamino)-N-(1-hydroxy-2-methylpropan-2-yl)-3-methoxybenzamide] | 6.40 to 7.00
Cc1nc2ccc(-c3c[nH]c4nc(Nc5ccc6c(c5)CNC6=O)nc(OC5CCCC5)c34)cc2o1 [Example 235, 5-(4-(cyclopentyloxy)-5-(2-methylbenzo[d]oxazol-6-yl)-7H-pyrrolo[2,3-d]pyrimidin-2-ylamino)isoindolin-1-one] | > 7.00
CNC(=O)c1ccc(Nc2nc(OC3CCOCC3)c3c(-c4ccnc(NC(C)=O)c4)c[nH]c3n2)c(OC)c1 [Example 236, 4-(5-(2-acetamidopyridin-4-yl)-4-(tetrahydro-2H-pyran-4-yloxy)-7H-pyrrolo[2,3-d]pyrimidin-2-ylamino)-3-methoxy-N-methylbenzamide] | > 7.00
COc1cc(C(=O)NC2CC(O)C2)ccc1Nc1nc(OC2CCCC2)c2c(-c3ccc4nc(C)oc4c3)c[nH]c2n1 (stereo not shown) [Example 238, 4-(4-(cyclopentyloxy)-5-(2-methylbenzo[d]oxazol-6-yl)-7H-pyrrolo[2,3-d]pyrimidin-2-ylamino)-N-((1s,3s)-3-hydroxycyclobutyl)-3-methoxybenzamide] | > 7.00
COc1cc(C(=O)N[C@H]2C[C@H](O)C2)ccc1Nc1nc(OC2CCCC2)c2c(-c3ccc4nc(C)oc4c3)c[nH]c2n1 [Example 239, 4-(4-(cyclopentyloxy)-5-(2-methylbenzo[d]oxazol-6-yl)-7H-pyrrolo[2,3-d]pyrimidin-2-ylamino)-N-((1r,3r)-3-hydroxycyclobutyl)-3-methoxybenzamide] | > 7.00
COc1cc(C(=O)NC[C@H](C)O)ccc1Nc1nc(OC2CCCC2)c2c(-c3ccc4nc(C)oc4c3)c[nH]c2n1 [Example 240, (S)-4-(4-(cyclopentyloxy)-5-(2-methylbenzo[d]oxazol-6-yl)-7H-pyrrolo[2,3-d]pyrimidin-2-ylamino)-N-(2-hydroxypropyl)-3-methoxybenzamide] | 6.40 to 7.00
COc1cc(C(=O)N2CCC2)ccc1Nc1nc(OC2CCCC2)c2c(-c3ccc4nc(C)oc4c3)c[nH]c2n1 [Example 241, azetidin-1-yl(4-(4-(cyclopentyloxy)-5-(2-methylbenzo[d]oxazol-6-yl)-7H-pyrrolo[2,3-d]pyrimidin-2-ylamino)-3-methoxyphenyl) methanone] | > 7.00
COc1cc(C(=O)NC[C@H]2CCCO2)ccc1Nc1nc(OC2CCCC2)c2c(-c3ccc4nc(C)oc4c3)c[nH]c2n1 [Example 242, (R)-4-(4-(cyclopentyloxy)-5-(2-methylbenzo[d]oxazol-6-yl)-7H-pyrrolo[2,3-d]pyrimidin-2-ylamino)-3-methoxy-N-((tetrahydrofuran-2-yl)methyl)benzamide] | 6.40 to 7.00
COc1cc(C(=O)NCC2CCOCC2)ccc1Nc1nc(OC2CCCC2)c2c(-c3ccc4nc(C)oc4c3)c[nH]c2n1 [Example 243, 4-(4-(cyclopentyloxy)-5-(2-methylbenzo[d]oxazol-6-yl)-7H-pyrrolo[2,3-d]pyrimidin-2-ylamino)-3-methoxy-N-((tetrahydro-2H-pyran-4-yl)methyl)benzamide] | 6.40 to 7.00
Cc1nc2ccc(-c3c[nH]c4nc(Nc5ccc6c(c5)CN(C)C6=O)nc(OC5CCCC5)c34)cc2o1 [Example 244, 5-(4-(cyclopentyloxy)-5-(2-methylbenzo[d]oxazol-6-yl)-7H-pyrrolo[2,3-d]pyrimidin-2-ylamino)-2-methylisoindolin-1-one] | > 7.00
CNC(=O)c1ccc(Nc2nc(OC3CCCC3)c3c(-c4ccc(C(=N)N)cc4)c[nH]c3n2)c(OC)c1 [Example 245, 4-(5-(4-carbamimidoylphenyl)-4-(cyclopentyloxy)-7H-pyrrolo[2,3-d]pyrimidin-2-ylamino)-3-methoxy-N-methylbenzamide] | 5.00 to 6.00
CNC(=O)c1ccc(Nc2nc(OC(C)(C)C)c3c(-c4ccc5nc(C)oc5c4)c[nH]c3n2)c(OC)c1 [Example 246, 4-(4-tert-butoxy-5-(2-methylbenzo[d]oxazol-6-yl)-7H-pyrrolo[2,3-d]pyrimidin-2-ylamino)-3-methoxy-N-methylbenzamide] | > 7.00
COc1cc(NC(C)=O)ccc1Nc1nc(OC2CCCC2)c2c(-c3ccc4nc(C)oc4c3)c[nH]c2n1 [Example 247, N-(4-(4-(cyclopentyloxy)-5-(2-methylbenzo[d]oxazol-6-yl)-7H-pyrrolo[2,3-d]pyrimidin-2-ylamino)-3-methoxyphenyl) acetamide] | 6.40 to 7.00
COc1cc(C(=O)N(C)CCC#N)ccc1Nc1nc(OC2CCCC2)c2c(-c3ccc4nc(C)oc4c3)c[nH]c2n1 [Example 248, N-(2-cyanoethyl)-4-(4-(cyclo-pentyloxy)-5-(2-methylbenzo[d]oxazol-6-yl)-7H-pyrrolo[2,3-d]pyrimidin-2-ylamino)-3-methoxy-N-methylbenzamide] | > 7.00
COc1cc(C(=O)N2CCCC2)ccc1Nc1nc(OC2CCCC2)c2c(-c3ccc4nc(C)oc4c3)c[nH]c2n1 [Example 249, (4-(4-(cyclopentyloxy)-5-(2-methylbenzo[d]oxazol-6-yl)-7H-pyrrolo[2,3-d]pyrimidin-2-ylamino)-3-methoxyphenyl) (pyrrolidin-1-yl)methanone] | 6.40 to 7.00
COc1cc(C(=O)N(C)C2CCOCC2)ccc1Nc1nc(OC2CCCC2)c2c(-c3ccc4nc(C)oc4c3)c[nH]c2n1 [Example 250, 4-(4-(cyclopentyloxy)-5-(2-methylbenzo[d]oxazol-6-yl)-7H-pyrrolo[2,3-d]pyrimidin-2-ylamino)-3-methoxy-N-methyl-N-(tetrahydro-2H-pyran-4-yl)benzamide] | 6.40 to 7.00
COc1cc(C(=O)N(CCO)C2CC2)ccc1Nc1nc(OC2CCCC2)c2c(-c3ccc4nc(C)oc4c3)c[nH]c2n1 [Example 251, 4-(4-(cyclopentyloxy)-5-(2-methylbenzo[d]oxazol-6-yl)-7H-pyrrolo[2,3-d]pyrimidin-2-ylamino)-N-cyclopropyl-N-(2-hydroxyethyl)-3-methoxybenzamide] | 6.40 to 7.00
COc1cc(C(=O)NC2CCOCC2)ccc1Nc1nc(OC2CCCC2)c2c(-c3ccc4nc(C)oc4c3)c[nH]c2n1 [Example 252, 4-(4-(cyclopentyloxy)-5-(2-methylbenzo[d]oxazol-6-yl)-7H-pyrrolo[2,3-d]pyrimidin-2-ylamino)-3-methoxy-N-(tetrahydro-2H-pyran-4-yl)benzamide] | 6.40 to 7.00
COc1cc(C(=O)N[C@@H]2CCC[C@@H]2O)ccc1Nc1nc(OC2CCCC2)c2c(-c3ccc4nc(C)oc4c3)c[nH]c2n1 [Example 253, 4-(4-(cyclopentyloxy)-5-(2-methylbenzo[d]oxazol-6-yl)-7H-pyrrolo[2,3-d]pyrimidin-2-ylamino)-N-((1R,2S)-2-hydroxycyclopentyl)-3-methoxybenzamide] | 6.40 to 7.00
COc1cc(C(=O)NC[C@@H]2CCCO2)ccc1Nc1nc(OC2CCCC2)c2c(-c3ccc4nc(C)oc4c3)c[nH]c2n1 [Example 254, (S)-4-(4-(cyclopentyloxy)-5-(2-methylbenzo[d]oxazol-6-yl)-7H-pyrrolo[2,3-d]pyrimidin-2-ylamino)-3-methoxy-N-((tetrahydrofuran-2-yl)methyl) benzamide] | 6.40 to 7.00
COc1cc(C(=O)NC2COC2)ccc1Nc1nc(OC2CCCC2)c2c(-c3ccc4nc(C)oc4c3)c[nH]c2n1 [Example 255, 4-(4-(cyclopentyloxy)-5-(2-methylbenzo[d]oxazol-6-yl)-7H-pyrrolo[2,3-d]pyrimidin-2-ylamino)-3-methoxy-N-(oxetan-3-yl)benzamide] | 6.40 to 7.00
COc1cc(C(=O)NCCF)ccc1Nc1nc(OC2CCCC2)c2c(-c3ccc4nc(C)oc4c3)c[nH]c2n1 [Example 256, 4-(4-(cyclopentyloxy)-5-(2-methylbenzo[d]oxazol-6-yl)-7H-pyrrolo[2,3-d]pyrimidin-2-ylamino)-N-(2-fluoroethyl)-3-methoxybenzamide] | 6.40 to 7.00
COc1cc(C(=O)N(C)CCC(N)=O)ccc1Nc1nc(OC2CCCC2)c2c(-c3ccc4nc(C)oc4c3)c[nH]c2n1 [Example 257, N-(3-amino-3-oxopropyl)-4-(4-(cyclopentyloxy)-5-(2-methylbenzo[d]oxazol-6-yl)-7H-pyrrolo[2,3-d]pyrimidin-2-ylamino)-3-methoxy-N-methylbenzamide] | > 7.00
CNC(=O)c1ccc(-c2c[nH]c3nc(Nc4ccc(C(=O)NCCO)cc4OC)nc(OC4CCCC4)c23)cc1 [Example 258, 4-(4-(cyclopentyloxy)-5-(4-(methylcarbamoyl)phenyl)-7H-pyrrolo[2,3-d]pyrimidin-2-ylamino)-N-(2-hydroxyethyl)-3-methoxybenzamide] | > 7.00
COc1cc(C(=O)N2CCN(C)CC2)ccc1Nc1nc(OC2CCCC2)c2c(-c3ccc4nc(C)oc4c3)c[nH]c2n1 [Example 259, (4-(4-(cyclopentyloxy)-5-(2-methylbenzo[d]oxazol-6-yl)-7H-pyrrolo[2,3-d]pyrimidin-2-ylamino)-3-methoxyphenyl)(4-methylpiperazin-1-yl)methanone] | > 7.00
CNC(=O)c1ccc(Nc2nc(OC3CCCC3)c3c(-c4ccc5nonc5c4)c[nH]c3n2)c(OC)c1 [Example 260, 4-(5-(benzo[c][1,2,5]oxadiazol-5-yl)-4-(cyclopentyloxy)-7H-pyrrolo[2,3-d]pyrimidin-2-ylamino)-3-methoxy-N-methylbenzamide] | 5.00 to 6.00
COc1cc(S(C)(=O)=O)c(F)cc1Nc1nc(OC2CCCC2)c2c(-c3ccc4nc(C)oc4c3)c[nH]c2n1 [Example 261, 4-(cyclopentyloxy)-N-(5-fluoro-2-methoxy-4-(methylsulfonyl)phenyl)-5-(2-methylbenzo[d]oxazol-6-yl)-7H-pyrrolo[2,3-d] pyrimidin-2-amine] | 6.40 to 7.00
